In patent US11053246B2, “Substituted tricyclic compounds as FGFR inhibitors” (Incyte Corporation, priority 2012, dated 2021):
pIC50: −log10 of the molar value.

How the values were obtained:
Format in all cases: biochemical
FGFR1 = FGFR1 (Homo sapiens (Human), UniProt P11362); assay: FGFR Enzymatic Assay (FRET peptide phosphorylation), FGFR1; settings: FGFR1 enzyme 0.02 nM, ATP 210 μM, 25° C., 1 hr
FGFR2 = FGFR2 (Homo sapiens (Human), UniProt P21802); assay: FGFR Enzymatic Assay (FRET peptide phosphorylation), FGFR2; settings: FGFR2 enzyme 0.01 nM, ATP 100 μM, 25° C., 1 hr
Chain of FGFR2 (P21802 22-821): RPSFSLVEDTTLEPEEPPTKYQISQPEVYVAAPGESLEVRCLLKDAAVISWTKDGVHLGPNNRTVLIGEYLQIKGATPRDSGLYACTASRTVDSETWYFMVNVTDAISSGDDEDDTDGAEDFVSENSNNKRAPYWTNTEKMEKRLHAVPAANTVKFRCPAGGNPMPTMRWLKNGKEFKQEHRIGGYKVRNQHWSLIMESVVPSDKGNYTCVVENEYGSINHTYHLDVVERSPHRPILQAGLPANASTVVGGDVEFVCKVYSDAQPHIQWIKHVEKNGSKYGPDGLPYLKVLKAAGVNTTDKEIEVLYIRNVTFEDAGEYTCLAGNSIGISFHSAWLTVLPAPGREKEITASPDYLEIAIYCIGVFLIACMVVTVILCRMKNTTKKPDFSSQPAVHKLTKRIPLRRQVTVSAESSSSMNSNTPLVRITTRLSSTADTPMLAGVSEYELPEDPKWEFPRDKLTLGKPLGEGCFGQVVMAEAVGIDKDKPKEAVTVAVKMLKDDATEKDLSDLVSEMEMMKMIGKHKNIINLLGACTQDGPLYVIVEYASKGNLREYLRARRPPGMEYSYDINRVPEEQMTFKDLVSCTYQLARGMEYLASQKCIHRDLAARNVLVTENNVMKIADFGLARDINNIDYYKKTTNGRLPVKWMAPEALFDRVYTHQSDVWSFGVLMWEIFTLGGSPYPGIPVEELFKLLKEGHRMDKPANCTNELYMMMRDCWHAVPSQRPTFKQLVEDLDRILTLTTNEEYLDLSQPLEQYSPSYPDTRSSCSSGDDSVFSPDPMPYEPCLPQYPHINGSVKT
Experimental: (§1) The inhibitor potency of the exemplified compounds was measured in an enzyme assay that measures peptide phosphorylation using FRET measurements to detect product formation. Inhibitors were serially diluted in DMSO and a volume of 0.5 μL was transferred to the wells of a 384-well plate. For FGFR3, a 10 μL volume of FGFR3 enzyme (Millipore) diluted in assay buffer (50 mM HEPES, 10 mM MgCl2, 1 mM EGTA, 0.01% Tween-20, 5 mM DTT, pH 7.5) was added to the plate and pre-incubated for 5-10 minutes. Appropriate controls (enzyme blank and enzyme with no inhibitor) were included on the plate. […] The plate was incubated at 25° C. for 1 hr. […] The plate was allowed to equilibrate for ˜1 hr before scanning the wells on a PheraStar plate reader (BMG Labtech).
The enzymes were purchased from Millipore or Invitrogen.
(§2) GraphPad prism3 was used to analyze the data. The IC50 values were derived by fitting the data to the equation for a sigmoidal dose-response with a variable slope. Y=Bottom+(Top−Bottom)/(1+10^((Log IC50−X)*HillSlope)) where X is the logarithm of concentration and Y is the response.

FGFR3 = FGFR3 (Homo sapiens (Human), UniProt P22607); assay: FGFR Enzymatic Assay (FRET peptide phosphorylation), FGFR3; settings: FGFR3 enzyme (Millipore), ATP 140 μM, 25° C., 1 hr
Chain of FGFR3 (P22607 23-806): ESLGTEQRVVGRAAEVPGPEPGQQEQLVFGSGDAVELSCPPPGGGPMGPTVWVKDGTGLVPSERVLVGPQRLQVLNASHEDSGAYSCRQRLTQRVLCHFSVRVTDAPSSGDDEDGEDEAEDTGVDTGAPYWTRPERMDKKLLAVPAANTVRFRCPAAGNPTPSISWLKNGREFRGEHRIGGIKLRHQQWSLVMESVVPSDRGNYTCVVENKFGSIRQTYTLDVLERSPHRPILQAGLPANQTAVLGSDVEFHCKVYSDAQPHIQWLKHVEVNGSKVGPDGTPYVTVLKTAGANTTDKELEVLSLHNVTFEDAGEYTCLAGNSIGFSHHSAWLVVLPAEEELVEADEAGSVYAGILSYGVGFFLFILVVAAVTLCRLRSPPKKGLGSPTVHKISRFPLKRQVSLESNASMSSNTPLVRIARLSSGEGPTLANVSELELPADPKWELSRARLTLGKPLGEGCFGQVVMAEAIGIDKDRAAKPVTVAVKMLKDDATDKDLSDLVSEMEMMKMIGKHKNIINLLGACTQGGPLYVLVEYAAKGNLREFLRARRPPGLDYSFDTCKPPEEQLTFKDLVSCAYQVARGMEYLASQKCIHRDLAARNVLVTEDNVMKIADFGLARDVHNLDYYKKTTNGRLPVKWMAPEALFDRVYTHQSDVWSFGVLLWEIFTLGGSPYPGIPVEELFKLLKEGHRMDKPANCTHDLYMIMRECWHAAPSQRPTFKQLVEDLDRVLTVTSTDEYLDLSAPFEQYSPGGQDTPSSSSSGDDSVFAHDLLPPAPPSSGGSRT
Experimental: as §1, §2

Measured: pIC50

Chain of FGFR1 (P11362 22-822): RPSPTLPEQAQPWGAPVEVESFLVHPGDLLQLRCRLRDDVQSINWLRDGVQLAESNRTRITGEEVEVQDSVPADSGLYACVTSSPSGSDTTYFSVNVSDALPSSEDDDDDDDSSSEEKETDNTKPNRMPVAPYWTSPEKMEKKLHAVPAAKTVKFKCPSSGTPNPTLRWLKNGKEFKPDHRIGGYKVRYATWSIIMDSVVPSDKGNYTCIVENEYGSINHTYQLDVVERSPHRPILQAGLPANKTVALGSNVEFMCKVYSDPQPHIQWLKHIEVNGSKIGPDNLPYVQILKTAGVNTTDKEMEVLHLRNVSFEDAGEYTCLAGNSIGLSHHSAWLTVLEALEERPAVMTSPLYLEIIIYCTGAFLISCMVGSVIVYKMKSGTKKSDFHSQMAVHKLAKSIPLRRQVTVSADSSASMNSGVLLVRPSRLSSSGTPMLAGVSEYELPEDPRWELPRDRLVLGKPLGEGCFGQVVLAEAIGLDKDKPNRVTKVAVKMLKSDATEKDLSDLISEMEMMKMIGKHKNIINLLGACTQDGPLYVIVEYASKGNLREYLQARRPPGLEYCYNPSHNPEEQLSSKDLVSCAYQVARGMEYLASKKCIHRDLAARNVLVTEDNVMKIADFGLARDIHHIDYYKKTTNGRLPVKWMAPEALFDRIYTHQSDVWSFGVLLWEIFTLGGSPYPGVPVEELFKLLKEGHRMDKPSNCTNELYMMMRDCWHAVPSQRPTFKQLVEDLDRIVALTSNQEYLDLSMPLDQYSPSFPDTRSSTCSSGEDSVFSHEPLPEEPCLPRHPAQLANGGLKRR

CCN1C(=O)N(c2c(F)c(OC)cc(OC)c2Cl)Cc2cnc3c(c21)CC(=O)N3 [Example 63, 3-(2-chloro-6-fluoro-3,5-dimethoxyphenyl)-1-ethyl-3,4,7,9-tetrahydro-1H-pyrrolo[3′,2′:5,6]pyrido[4,3-d]pyrimidine-2,8-dione]
> 7.00: all assays above
